Source: patent US20230130823A1, “PROCESS FOR THE PRODUCTION OF ANTITUMOUR PHARMACEUTICAL COMPOSITIONS USING PUSH-PULL BUTADIENES, COMPOUNDS AND USES THEREOF” (ANHANGUERA EDUCACIONAL PARTICIPAÇÕES S/A, priority 2019, published 2023)
Where two headings read alike, the source gives them in different places. Blank lines part the entries; values can stand above or below the compound they belong to.

Experiments:
[1] = tested on: HUVEC (Normal human endothelial cell)
MCF7 = experiment: Cytotoxicity, MCF7 breast line; assay type: cell-based; conditions: Homo sapiens; MCF7 (breast cancer); read-out: CI50 (the source's name)
UACC62 = experiment: Cytotoxicity, UACC62 melanoma line; assay type: cell-based; conditions: Homo sapiens, UACC-62, read-out: CI50 (the source's name)
NCIADR = experiment: Cytotoxicity, NCIADR multiple drug resistant ovary line; assay type: cell-based; conditions: Homo sapiens, NCI/ADR-RES, read-out: CI50 (the source's name)
NCI460 = experiment: Cytotoxicity, NCI460 lung line; assay type: cell-based; conditions: Homo sapiens, NCI-460, read-out: CI50 (the source's name)
[2] = tested on: MCF-7 (human mammary adenocarcinoma); experiment: Cytotoxicity, MCF-7 cells; assay type: cell-based; conditions: MCF7, read-out: CI50% tumor cells
[3] = tested on: SCC9 (squamous-cell carcinoma of the oral cavity); experiment: Cytotoxicity, SCC9 cells; assay type: cell-based; conditions: Homo sapiens, SCC-9, read-out: CI50% tumor cells
[4] = tested on: SCC25 (squamous-cell carcinoma of the oral cavity); experiment: Cytotoxicity, SCC25 cells; assay type: cell-based; conditions: Homo sapiens, SCC-25, read-out: CI50% tumor cells
[5] = tested on: 4T1 (murine mammary carcinoma); experiment: Cytotoxicity, 4T1 cells; assay type: cell-based; conditions: Mus musculus, read-out: CI50% tumor cells
[6] = tested on: HUVEC (Normal human endothelial cell); experiment: Cytotoxicity, HUVEC normal cells
[7] = tested on: FN-1 (Normal human fibroblast); experiment: Cytotoxicity, normal human fibroblasts; assay type: cell-based; conditions: FN-1
Protocol: Fragments of cutaneous biopsies from patients treated by the Dermatology Service of the Clinic Hospital of the Medicine School of USP were removed for routine diagnostic procedures and part of the surgical flap edge immersed in Eagle culture medium modified by Dulbecco's (DMEM, Sigma Chemical Co., St. Louis, Mo., USA) added of 10% fetal bovine serum (Cultilab Ltda., Campinas-SP), […] and 50 ng/ml amphotericin B at 4 C and kept at 4 C for a maximum of 16 hours.
The fragments were washed three times in the same solution, cut into fragments of approximately 1 mm^3 and transferred to 25 cm^2 culture flasks, kept at 37 C, humid atmosphere containing 5% CO2. Cell growth monitored daily, photo documented in inversion microscopy and culture medium exchanged every 2 or 3 days, according to cell metabolism.
After 7 days, the first change in the culture medium of the flasks was performed once cell growth started, the culture medium was renewed every three days. Plastic flasks were used for cultivation of 25 cm^2 of cultivated area, where more 3 ml of DME medium containing 10% fetal bovine serum and 1% of antibiotic-antimycotic solution will be added.
The cell viability test was performed to verify the effect of the various compounds on the various concentrations previously established: on the lines of tumor cells B16F10 and normal human fibroblasts. The MTT method consists of a cell viability test that measures the activity of mitochondrial dehydrogenase. MTT is a colorimetric method based on the capacity of living cells to reduce salt 3-(4,5-di-methylazole-2-IL)-2,5-diphenyl tetrazolium bromide in the formazan product (Mosmann, 1983). […]
The 96-well plate was read by the spectrophotometer (Spectra MAX-190) using the wavelength of 570 nm. The results were analyzed by absorbance of each well. The percentage of viability was obtained using the following formula: [(Absorbance of treated cells/Absorbance of untreated cells)×100]. […]

BxPC3 = experiment: In vitro cytotoxicity, BxPC3 pancreas line; assay type: cell-based; conditions: Homo sapiens, BXPC-3; BxPC3, Table 3; read-out: CI50% (the source's name)
Colo205 = experiment: In vitro cytotoxicity, Colo205 colon line; assay type: cell-based; conditions: Homo sapiens, COLO 205; Colo205, Table 3; read-out: CI50% (the source's name)
SW620 = experiment: In vitro cytotoxicity, SW620 colon line; assay type: cell-based; conditions: Homo sapiens, SW-620; SW620, Table 3; read-out: CI50% (the source's name)
CRO2B = experiment: In vitro cytotoxicity, CRO2B carcinoid line; assay type: cell-based; conditions: Homo sapiens, Table 3, read-out: CI50% (the source's name)
MIAP2 = experiment: In vitro cytotoxicity, MIAP2 pancreas line; assay type: cell-based; conditions: Homo sapiens; MIAP2, Table 3; read-out: CI50% (the source's name)
[8] = tested on: lines of human carcinoma tested; experiment: In vitro cytotoxicity against the panel of human carcinoma lines; conditions: compared with compound 6
CaCo2 = experiment: In vitro cytotoxicity, CaCo2 colon line; assay type: cell-based; conditions: Homo sapiens, Caco-2; Caco2, Table 3; read-out: CI50% (the source's name)
DLD1 = experiment: Antitumor activity, DLD1 line; assay type: cell-based; conditions: Homo sapiens, DLD-1; DLD1, Table 3; read-out: CI50% (the source's name)
HT-29 = experiment: In vitro cytotoxicity, HT-29 colon line; assay type: cell-based; conditions: Homo sapiens, HT-29; HT29, Table 3; read-out: CI50% (the source's name)
PANC1 = experiment: In vitro cytotoxicity, PANC1 pancreas line; assay type: cell-based; conditions: Homo sapiens, PANC-1; PANC1, Table 3; read-out: CI50% (the source's name)

- CI50% Normal cells [1]: 23.09 µM
Compound: 5-(chloro-2-(3,4-dimethoxybenzyl)-5-(4-ethynyl-2,3,4,6-benzil-β-D-galactopyranoside)-penta-2,4-dienonitrile [Compound 21A]

Compound: CC(=O)c1ccccc1OCC=C(C)C [Compound 9, 2-(3-methylbut-2-enyl-oxyi)acetophenone]
- IC50 (MCF7): 122 µM
- IC50 (UACC62): 220 µM
- IC50 (NCIADR): 39.2 µM
- IC50 (NCI460): 122 µM

Compound: COc1ccc(/C=C/C(Cl)=C/C=O)cc1OC [Compound 23, (4E)-3-chloro-5-(3,4-dimethoxyphenyl)penta-2,4-dienal]
- IC50 [2]: 54.6 µM
- IC50 [3]: 15 µM
- IC50 [4]: 3.32 µM
- IC50 [5]: 22.1 µM
- CI50% Normal cells [6]: 30.1 µM
- CI50% Normal cells [7]: 53.33 µM

- IC50 (DLD1): 127 µM
Compound: O=CC=C(Cl)c1ccccc1OC(=O)c1ccccc1 [Compound 5, 3-Chloro-3-(2-benzoyloxy-phenyl)propenal]
- IC50 (BxPC3): 160 µM
- IC50 (Colo205): 149 µM
- IC50 (SW620): 134 µM
- IC50 (CRO2B): 149 µM
- IC50 (MIAP2): 156 µM
- cytotoxic activity relative to compound 6 [8]: seven times lower
- IC50 (CaCo2): 163 µM
- IC50 (HT-29): 92 µM
- IC50 (PANC1): 177 µM
